In patent US12295955B2, “TTP phosphorylation for the identification of personalized medicines” (KING FAISAL SPECIALIST HOSPITAL & RESEARCH CENTRE, priority 2019, dated 2025):

Columns and labels:
phosphorylated TTP/ZFP36 [1] = test: Western blotting of TTP/ZFP36 phosphorylation in cells treated with kinase inhibitor volasertib; assay type: cell-based
Description: The cells were lysed in a mixture of 0.5% NP40 buffer, protease inhibitor and phosphatase inhibitor. The calf intestinal alkaline phosphatase (CIP, Promega, Madison, WI, USA) was used to verify the phosphorylation status of TTP/ZFP36, 20 units were added to the cell lysate (per 250 ul). The cell lysates were loaded and subjected to electrophoresis on 4-12% NuPAGE Bis-Tris gel (Invitrogen, Foster City, CA, USA). Then, the proteins were transferred from the gel to nitrocellulose membranes (Hybond ECL; Amersham Biosciences, Piscataway, NJ) in the presence of NuGAGE 20× transfer buffer (Invitrogen, Foster City, CA, USA). After blocking, membranes were incubated with primary antibodies diluted in 5% bovine serum albumin (BSA) (Sigma-Aldrich, St Louis, MO) at 4° C. overnight. For TTP/ZFP36, a custom-made affinity purified TTP polyclonal antibody and against C-terminal end of TTP and was used previously. This antibody is specific to TTP/ZFP36, but not the ortholog: ZFP36L1 when using 0.5% NP40 buffer instead of Laemmli buffer. Other antibodies are: anti-PLK1 (dilution 1:1000, Cell signaling, Massachusetts, USA), anti-GAPDH (dilution 1:500, Abcam, MA, USA), anti-HA, dilution 1:5000, Roche, Upper Bavaria, Germany). Thereafter, the membranes were incubated with corresponding secondary antibodies (diluted in 5% BSA, 1:2000 dilution) (Santa Cruz Biotech, Santa Cruz, CA) for 1-3 hrs. Protein bands were detected using ECL Western blotting detection reagents (Amersham Biosciences, Amersham, UK) in Molecular Imager ChemiDoc machine (BioRad, Hercules, CA, USA).
An exemplary kinase inhibitor, namely volasertib, was tested for the effects on the level of phosphorylation of TTP. […] The maximum dosage tested was 300 nM, and the lowest tested dose was 10 nM and was still effective (FIG. 2A). […] There was no change in the mobility of ZFP36 as observed with CIP treatment, indicating a partial, rather than complete de-phosphorylation event (as with CIP).

uPA = test: Western blotting of uPA protein (TTP target) after volasertib; assay type: cell-based; settings: volasertib 330 nM time course, FIG. 2C
Description: The cells were lysed in a mixture of 0.5% NP40 buffer, protease inhibitor and phosphatase inhibitor. The calf intestinal alkaline phosphatase (CIP, Promega, Madison, WI, USA) was used to verify the phosphorylation status of TTP/ZFP36, 20 units were added to the cell lysate (per 250 ul). The cell lysates were loaded and subjected to electrophoresis on 4-12% NuPAGE Bis-Tris gel (Invitrogen, Foster City, CA, USA). Then, the proteins were transferred from the gel to nitrocellulose membranes (Hybond ECL; Amersham Biosciences, Piscataway, NJ) in the presence of NuGAGE 20× transfer buffer (Invitrogen, Foster City, CA, USA). After blocking, membranes were incubated with primary antibodies diluted in 5% bovine serum albumin (BSA) (Sigma-Aldrich, St Louis, MO) at 4° C. overnight. For TTP/ZFP36, a custom-made affinity purified TTP polyclonal antibody and against C-terminal end of TTP and was used previously. This antibody is specific to TTP/ZFP36, but not the ortholog: ZFP36L1 when using 0.5% NP40 buffer instead of Laemmli buffer. Other antibodies are: anti-PLK1 (dilution 1:1000, Cell signaling, Massachusetts, USA), anti-GAPDH (dilution 1:500, Abcam, MA, USA), anti-HA, dilution 1:5000, Roche, Upper Bavaria, Germany). […] Protein bands were detected using ECL Western blotting detection reagents (Amersham Biosciences, Amersham, UK) in Molecular Imager ChemiDoc machine (BioRad, Hercules, CA, USA). […]

phosphorylated TTP/ZFP36 [2] = test: Western blotting of phosphorylated TTP/ZFP36 in excised xenograft tumor tissues; set-up: species or system nude mice; settings: 10 mg/kg in vivo treatment, Western blot, FIG. 4B
Description: (§1) FIGS. 4A-4B show kinase inhibition in mice and reduction in TTP phosphorylation. • 4A) PLK1 inhibition and tumor size in mice; MDA-MB-231 xenografts were injected into the mammary fat pad of female nude mice; when tumors become palpable, mice were treated with either volasertib (10 mg/kg) or vehicle twice weekly. The tumor size was calculated as described in Methods. Data are Mean±SEM from a nine-mouse experiment as indicated. Two-way ANOVA was performed for overall effect with Sidak's multiple comparison test (*p<0.05, **** p<0.0001). 4B) The effect of volasertib on TTP/ZFP36 phosphorylation; WB of tumor tissues from each mouse as probed with anti-TTP/ZFP36 or GAPDH as the loading control.
The cells were lysed in a mixture of 0.5% NP40 buffer, protease inhibitor and phosphatase inhibitor. […] Protein bands were detected using ECL Western blotting detection reagents (Amersham Biosciences, Amersham, UK) in Molecular Imager ChemiDoc machine (BioRad, Hercules, CA, USA).
Nude mice were purchased from Jackson Laboratories (Bar Harbor, Maine, USA). […] Tumor growth was measured by caliper, and the volume was calculated by the formula (π/6×L×M2), where L and M refer to the large and small diameters of each tumor, respectively. Mice weight and tumor size were recorded weekly. […]

MDA-MB-231 xenografts = test: MDA-MB-231 xenograft tumor growth in nude mice; assay type: in vivo
Description: as §1
Nude mice were purchased from Jackson Laboratories (Bar Harbor, Maine, USA). The mice were housed at the animal facility at King Faisal Specialist Hospital and Research Center (KFSHRC) and maintained in accordance with protocols approved by the institution Animal Care and Use Committee. […] Tumor growth was measured by caliper, and the volume was calculated by the formula (π/6×L×M2), where L and M refer to the large and small diameters of each tumor, respectively. Mice weight and tumor size were recorded weekly. […]

phosphorylated TTP = test: Phosphorylated TTP level in ERBB2 overexpressing SKBR3 cells treated with ERBB2 inhibitor; assay type: cell-based; settings: SKBR3 breast cancer cell line, FIG. 6B
[3] = dose response, 10 nM to 300 nM, Western blot, FIG. 2A
[4] = time course, volasertib 330 nM, FIG. 2B

`CC[C@@H]1C(=O)N(C)c2cnc(Nc3ccc(C(=O)N[C@H]4CC[C@H](N5CCN(CC6CC6)CC5)CC4)cc3OC)nc2N1C(C)C` [volasertib] was tested, and the “lowest tested dose still effective on TTP / phosphorylated TTP abundance” value (phosphorylated TTP/ZFP36 [1]; FIG. 2A) was 10 nM, the “change in the mobility of ZFP36 (partial rather than complete de-phosphorylation)” value (phosphorylated TTP/ZFP36 [1]; compared with CIP treatment) was “no change” and the “abundance of phosphorylated TTP” value (phosphorylated TTP/ZFP36 [1]; [3]) was “reduced in a dose-dependent manner”. For the same compound, the “abundance of total TTP” value (phosphorylated TTP/ZFP36 [1]; [3]) was “reduced in a dose-dependent manner”, the “time after treatment at which effect on phosphorylated TTP is first observed” value (phosphorylated TTP/ZFP36 [1]; [4]) was 2 h and the “time after treatment of maximal effect on phosphorylated TTP” value (phosphorylated TTP/ZFP36 [1]; [4]) was 8 h. The “abundance of the uPA protein” value (uPA) was “reduced”, the “phosphorylated TTP/ZFP36 levels in excised tumor tissues versus control” value (phosphorylated TTP/ZFP36 [2]) was “markedly reduced” and the “tumor growth versus control group” value (MDA-MB-231 xenografts; 10 mg/kg intraperitoneal twice a week, female nude mice, FIG. 4A upper panel) was “slower growth rate and began to regress by the end of the experiment”. For the same compound, the “difference in tumor volume versus vehicle” value (MDA-MB-231 xenografts; 10 mg/kg twice a week, after 4 weeks of treatment, FIG. 4A lower panel) was “statistically significant difference”.
In the case of `CS(=O)(=O)CCNCc1ccc(-c2ccc3ncnc(Nc4ccc(OCc5cccc(F)c5)c(Cl)c4)c3c2)o1` [lapatinib], the “levels of phosphorylated TTP” value (phosphorylated TTP) is reported as “reduce the levels of phosphorylated TTP”.
